This note sets out measurements from patent US11208419B2, “Phenylbenzofuran compound, preparation method therefor, composition containing the same and medical application thereof” (Guangxi Botanical Garden of Medicinal Plants, priority 2018, dated 2021).

Converted amounts (≈) assume the structure as drawn.

A word on the inhibition: it is the change of the read-out against control, counted positive when it falls.

Holding throughout (type): cell-based
The test system of experiment [1] is nasopharyngeal carcinoma cell CNE-1. Description: MTT anti-tumor experiment in vitro, inhibition of nasopharyngeal carcinoma cell CNE-1. The protocol: (§1) Experiment 1, anti-tumor experiment of MTT in vitro
Inhibition experiment of nasopharyngeal carcinoma cell CNE-1
(§2) F1, 0.25% trypsin was added to nasopharyngeal carcinoma cell CNE-1 in the logarithmic growth phase for cell dissociation until adherent cells were failed off. Cell suspension containing 2×10^4 nasopharyngeal carcinoma cells CNE-1 per mL was prepared.
(§3) F2, a 96-well plate was taken, one row of the 96-well plate was set as a blank group, 9 rows were set as the experimental group 1, one row was set as the experimental group 2, and one row was set as the negative control group, wherein 6 wells in the middle of each row were used for the experiment and was added of 100 μL of RPMI-1640 medium, wherein the medium of negative control group contained 1% DMSO.
(§4) F3, 100 μL of cell suspension was added to each well of the blank group, the experimental group 1, the experimental group 2, and the negative control group. Then, the 96-well plate was placed in an incubator at 37 degree Celsius, 5% CO2, and 95% humidity, and cultured in the incubator for 12 hours. 100 μL phenylbenzofuran compound (phenylbenzofuran compound of embodiment 3) with a concentration was added to wells of each row of 9 rows in the experimental group 1, ie, 10 μg/mL, 20 μg/mL, 30 μg/mL, 40 μg/mL, 50 μg/mL, 60 μg/mL, 70 μg/mL, 80 μg/mL, and 90 μg/mL, wherein the concentration of phenylbenzofuran compound of wells in the same row was equal. As a parallel experiment, cisplatin (80 μg/mL, 100 μL) was added to wells of a row in the experimental group 2. Then, the 96-well plate was placed in an incubator at 37 degree Celsius, 5% CO2, and 95% humidity, and cultured in the incubator for 48 hours. MTT (5 mg/mL, 20 μL) was added to each well. Then, the 96-well plate was placed in an incubator at 37 degree Celsius, 5% CO2, and 95% humidity, and cultured in the incubator for 4 hours. The supernatant as removed by a pipette tip, 150 μL of DMSO was added, and the mixture was shaken for 10 minutes in a micro shaker to cause complete dissolution of crystal. The OD value of each well was measured at a wavelength of 570 nm by a microplate reader, and the IC50 value was calculated. That is, the concentration when the inhibition rate of the cells reached 50% was the IC50 value.
Proliferation rate of CNE-1 cell=(average of experimental group-average of blank control group)/(average of negative control group-average of blank control group)×100%.
Inhibition rate of CNE-1 cell=[…] of CNE-1 cell.

The test system of experiment [2] is nasopharyngeal carcinoma cell CNE-2. Put plainly: MTT anti-tumor experiment in vitro, inhibition of nasopharyngeal carcinoma cell CNE-2. The protocol:
as §1, §2, §3, §4
Inhibition experiment of nasopharyngeal carcinoma cell CNE-2
The experimental procedure of the inhibition experiment of nasopharyngeal carcinoma cell CNE-2 was the same as that of the inhibition experiment of nasopharyngeal carcinoma cell CNE-1, except that the nasopharyngeal carcinoma cell CNE-1 was replaced with the nasopharyngeal carcinoma cell CNE-2.

In experiment [3] the test system is nasopharyngeal carcinoma cell CNE-1. Put plainly: MTT anti-tumor experiment in vitro, inhibition of nasopharyngeal carcinoma cell CNE-1. To be noted: 100 μg/mL, 48 hours, read-out: Inhibition rate of nasopharyngeal carcinoma cells (%) CNE-1.
Experiment [4] has as its system nasopharyngeal carcinoma cell CNE-2. Put plainly: MTT anti-tumor experiment in vitro, inhibition of nasopharyngeal carcinoma cell CNE-2. To be noted: Homo sapiens, 100 μg/mL, 48 hours, read-out: Inhibition rate of nasopharyngeal carcinoma cells (%) CNE-2.

For the compound `N.N.[Cl][Pt][Cl]` [Cisplatin, cisplatin, reference compound], in experiment [1] (80 μg/mL, 48 hours, MTT), the “Inhibition rate of nasopharyngeal carcinoma cells (%) CNE-1” value is 94.21 ± 0.18%. The “Inhibition rate of nasopharyngeal carcinoma cells (%) CNE-2” value in experiment [2] (80 μg/mL, 48 hours, MTT) came to 97.37 ± 0.49%.
`Oc1ccc(-c2cc3cc4c(cc3o2)OCO4)c(O)c1` [Phenylbenzofuran compound]: the inhibition at 10 µg/mL is 25 ± 0.07% in experiment [1] (10 μg/mL, 48 hours, MTT, read-out: Inhibition rate of nasopharyngeal carcinoma cells (%) CNE-1) and 28.4 ± 0.36% in experiment [2] (Homo sapiens, CNE-2, 10 μg/mL, 48 hours, MTT, read-out: Inhibition rate of nasopharyngeal carcinoma cells (%) CNE-2). For the same compound, the inhibition at 20 µg/mL in experiment [1] (20 μg/mL, 48 hours, MTT, read-out: Inhibition rate of nasopharyngeal carcinoma cells (%) CNE-1) is 37.57 ± 0.03%; in experiment [2] (Homo sapiens, CNE-2, 20 μg/mL, 48 hours, MTT, read-out: Inhibition rate of nasopharyngeal carcinoma cells (%) CNE-2) it was 43.61 ± 0.29%. Also, the inhibition at 30 µg/mL in experiment [1] (30 μg/mL, 48 hours, MTT, read-out: Inhibition rate of nasopharyngeal carcinoma cells (%) CNE-1) is 45.52 ± 0.07%; in experiment [2] (Homo sapiens, CNE-2, 30 μg/mL, 48 hours, MTT, read-out: Inhibition rate of nasopharyngeal carcinoma cells (%) CNE-2) it was 48.5 ± 0.6%. Also, the inhibition at 40 µg/mL amounted to 60.37 ± 0.06% in experiment [1] (40 μg/mL, 48 hours, MTT, read-out: Inhibition rate of nasopharyngeal carcinoma cells (%) CNE-1) and 75.18 ± 0.09% in experiment [2] (Homo sapiens, CNE-2, 40 μg/mL, 48 hours, MTT, read-out: Inhibition rate of nasopharyngeal carcinoma cells (%) CNE-2). In addition, the inhibition at 50 µg/mL was determined as 68.5 ± 0.09% in experiment [1] (50 μg/mL, 48 hours, MTT, read-out: Inhibition rate of nasopharyngeal carcinoma cells (%) CNE-1) and 84.42 ± 0.44% in experiment [2] (Homo sapiens, CNE-2, 50 μg/mL, 48 hours, MTT, read-out: Inhibition rate of nasopharyngeal carcinoma cells (%) CNE-2). Further, the inhibition at 60 µg/mL in experiment [1] (60 μg/mL, 48 hours, MTT, read-out: Inhibition rate of nasopharyngeal carcinoma cells (%) CNE-1) was 75.01 ± 0.13%; in experiment [2] (Homo sapiens, CNE-2, 60 μg/mL, 48 hours, MTT, read-out: Inhibition rate of nasopharyngeal carcinoma cells (%) CNE-2), 95.13 ± 0.22%. Besides, the inhibition at 70 µg/mL in experiment [1] (70 μg/mL, 48 hours, MTT, read-out: Inhibition rate of nasopharyngeal carcinoma cells (%) CNE-1) came out at 85.83 ± 0.06%; in experiment [2] (Homo sapiens, CNE-2, 70 μg/mL, 48 hours, MTT, read-out: Inhibition rate of nasopharyngeal carcinoma cells (%) CNE-2), 97.27 ± 0.6%. Also, the inhibition at 80 µg/mL in experiment [1] (80 μg/mL, 48 hours, MTT, read-out: Inhibition rate of nasopharyngeal carcinoma cells (%) CNE-1) was 97.02 ± 0.11%; in experiment [2] (Homo sapiens, CNE-2, 80 μg/mL, 48 hours, MTT, read-out: Inhibition rate of nasopharyngeal carcinoma cells (%) CNE-2) it was 98.78 ± 0.09%. For the same compound, the inhibition at 90 µg/mL turned out to be 97.81 ± 0.06% in experiment [1] (90 μg/mL, 48 hours, MTT, read-out: Inhibition rate of nasopharyngeal carcinoma cells (%) CNE-1) and 98.82 ± 0.44% in experiment [2] (Homo sapiens, CNE-2, 90 μg/mL, 48 hours, MTT, read-out: Inhibition rate of nasopharyngeal carcinoma cells (%) CNE-2). Moreover, the IC50 in experiment [1] (CNE-1, 48 hours, read-out: concentration at which the inhibition rate reaches half inhibition growth effect) is 20 µg/mL (≈ 74 µM); in experiment [2] (Homo sapiens, CNE-2, 48 hours, read-out: concentration at which the inhibition rate reaches half inhibition growth effect), 15 µg/mL (≈ 55.5 µM). The inhibition at 100 µg/mL in experiment [3] came to 97.41 ± 0.02%; in experiment [4], 98.64 ± 0.22%.
